Measured values: patent publication US8492376B2, “Heteroaryl-cyclohexyl-tetraazabenzo[e]azulenes” (Hoffmann-La Roche Inc., priority 2010, dated 2013)

target: T1, human V1a receptor (Homo sapiens, UniProt P37288); test: human V1a receptor binding studies (3H-Vasopressin, SPA beads); conditions: membranes from HEK293 cells transiently transfected with human V1a receptor, Ki calculated from IC50 by the Cheng-Prussoff equation, read-out: pKi (hV1a) (converted)
T1 construct: expressed in transfected cells; host or cells: HEK293 cells, transiently transfected; cell membranes
T1 sequence (P37288 whole entry): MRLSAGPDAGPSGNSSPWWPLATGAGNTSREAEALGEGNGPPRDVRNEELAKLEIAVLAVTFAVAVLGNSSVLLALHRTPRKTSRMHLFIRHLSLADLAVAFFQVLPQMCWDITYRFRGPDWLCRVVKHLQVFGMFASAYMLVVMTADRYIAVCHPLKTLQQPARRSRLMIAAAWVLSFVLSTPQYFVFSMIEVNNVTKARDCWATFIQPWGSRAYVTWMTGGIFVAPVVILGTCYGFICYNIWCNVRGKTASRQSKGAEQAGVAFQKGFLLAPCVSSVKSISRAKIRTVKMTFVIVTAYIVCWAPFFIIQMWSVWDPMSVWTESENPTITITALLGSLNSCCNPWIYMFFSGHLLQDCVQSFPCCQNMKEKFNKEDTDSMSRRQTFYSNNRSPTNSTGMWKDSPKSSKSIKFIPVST
In short: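 Membranes from HEK293 cells transiently expressing human V1a were bound to yttrium silicate SPA beads in Tris/NaCl/KCl/CaCl2/MgCl2 buffer. 3H-vasopressin (4 nM stock) and compound in 2% DMSO incubated 1 h at room temperature. Non-specific binding was defined with cold vasopressin; IC50 was converted to Ki by Cheng-Prusoff.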

Compound	Ki
CN1Cc2cc(Cl)ccc2-n2c(nnc2[C@H]2CC[C@H](c3cccc(F)n3)CC2)C1 [Example 21, trans-8-Chloro-1-[4-(6-fluoro-pyridin-2-yl)-cyclohexyl]-5-methyl-5,6-dihydro-4H-2,3,5,10b-tetraaza-benzo[e]azulene]	1.82 nM
CNCCN1Cc2cc(Cl)ccc2-n2c(nnc2[C@H]2CC[C@H](c3ncccc3F)CC2)C1 [Example 36, trans-(2-{8-Chloro-1-[4-(3-fluoro-pyridin-2-yl)-cyclohexyl]-4H,6H-2,3,5,10b-tetraaza-benzo[e]azulen-5-yl}-ethyl)-methyl-amine]	28.2 nM
Cc1cnc(C)c([C@H]2CC[C@H](c3nnc4n3-c3ccc(Cl)cc3CN(C)C4)CC2)n1 [Example 80, trans-8-Chloro-1-[4-(3,6-dimethyl-pyrazin-2-yl)-cyclohexyl]-5-methyl-5,6-dihydro-4H-2,3,5,10b-tetraaza-benzo[e]azulene]	7.24 nM
CN1Cc2cc(Cl)ccc2-n2c(nnc2[C@H]2CC[C@H](c3ncccc3F)CC2)C1 [Example 30, trans-8-Chloro-1-[4-(3-fluoro-pyridin-2-yl)-cyclohexyl]-5-methyl-5,6-dihydro-4H-2,3,5,10b-tetraaza-benzo[e]azulene]	0.603 nM
